Reference: PubChem BioAssay AID330 (DTP/NCI, 2004)
Where “and” joins values, the source holds several entries; their conditions need not be identical. Equal entries are not always repeated. Toxic doses and inconclusive results are not listed.

System: P388 leukemia ip, CD2F1 mice, survival T/C
Assay: NCI In Vivo Anticancer Drug Screen. Data for tumor model P388 Leukemia (intraperitoneal) in CD2F1 (CDF1) mice
Settings: endpoint: median survival time, higher = longer survival
Procedure, shortened: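 Mice carrying the transplanted tumor received test compound or vehicle. Survival was recorded in each group, and the value is the treated-group measurement divided by that of the vehicle-treated control group.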

SMILES: CN(Cc1cnc2nc(N)nc(N)c2n1)c1ccc(C(=O)N[C@@H](CCC(=O)O)C(=O)O)cc1
- T/C (dose: 0.09 mg/kg/injection, schedule: Q01DX009 (ip), vehicle: sodium bicarbonate): 120 % of control
- T/C (dose: 0.18 mg/kg/injection, schedule: Q01DX009 (ip), vehicle: sodium bicarbonate): 113 % of control
- T/C (dose: 0.25 mg/kg/injection, schedule: Q01DX005 (ip), vehicle: sodium bicarbonate): 117 % of control
- T/C (dose: 0.25 mg/kg/injection, schedule: Q01DX009 (ip), vehicle: sodium bicarbonate): 150 % of control and 154 % of control
- T/C (dose: 0.32 mg/kg/injection, schedule: Q01DX009 (ip), vehicle: sodium bicarbonate): 166 % of control and 168 % of control
- T/C (dose: 0.38 mg/kg/injection, schedule: Q01DX009 (ip), vehicle: other): 163 % of control
- T/C (dose: 0.38 mg/kg/injection, schedule: Q01DX009 (ip), vehicle: saline): 169 % of control
- T/C (dose: 0.38 mg/kg/injection, schedule: Q## X009 (ip), vehicle: sodium bicarbonate): 154 % of control
- T/C (dose: 0.48 mg/kg/injection, schedule: Q01DX009 (ip), vehicle: sodium bicarbonate): 168 % of control
- T/C (dose: 0.5 mg/kg/injection, schedule: Q01DX009 (ip), vehicle: sodium bicarbonate): 176 % of control and 177 % of control
- T/C (dose: 0.54 mg/kg/injection, schedule: Q01DX009 (ip), vehicle: sodium bicarbonate): 175 % of control and 180 % of control
- T/C (dose: 0.6 mg/kg/injection, schedule: Q01DX009 (ip), vehicle: clinical formulation): 164 % of control
- T/C (dose: 0.62 mg/kg/injection, schedule: Q01DX005 (ip), vehicle: sodium bicarbonate): 158 % of control
- T/C (dose: 0.73 mg/kg/injection, schedule: Q01DX009 (ip), vehicle: sodium bicarbonate): 184 % of control
- T/C (dose: 0.75 mg/kg/injection, schedule: Q01DX005 (ip), vehicle: sodium bicarbonate): 166 % of control
- T/C (dose: 0.75 mg/kg/injection, schedule: Q01DX009 (ip), vehicle: other): 195 % of control
- T/C (dose: 0.75 mg/kg/injection, schedule: Q01DX009 (ip), vehicle: saline): 200 % of control
- T/C (dose: 0.75 mg/kg/injection, schedule: Q01DX015 (ip), vehicle: sodium bicarbonate): 186 % of control
- T/C (dose: 0.75 mg/kg/injection, schedule: Q## X009 (ip), vehicle: sodium bicarbonate): 190 % of control
- T/C (dose: 0.8 mg/kg/injection, schedule: Q01DX009 (ip), vehicle: clinical formulation): 164 % of control
- T/C (dose: 1.0 mg/kg/injection, schedule: Q01DX009 (ip), vehicle: clinical formulation): 180 % of control
- T/C (dose: 1.0 mg/kg/injection, schedule: Q01DX009 (ip), vehicle: sodium bicarbonate): 177 % of control and 194 % of control and 195 % of control
- T/C (dose: 1.0 mg/kg/injection, schedule: Q02DX005 (ip), vehicle: sodium bicarbonate): 160 % of control
- T/C (dose: 1.1 mg/kg/injection, schedule: Q01DX009 (ip), vehicle: sodium bicarbonate): 192 % of control
- T/C (dose: 1.2 mg/kg/injection, schedule: Q01DX009 (ip), vehicle: clinical formulation): 189 % of control
- T/C (dose: 1.25 mg/kg/injection, schedule: Q01DX005 (ip), vehicle: sodium bicarbonate): 182 % of control
- T/C (dose: 1.3 mg/kg/injection, schedule: Q01DX009 (ip), vehicle: sodium bicarbonate): 196 % of control
- T/C (dose: 1.5 mg/kg/injection, schedule: Q01DX005 (ip), vehicle: sodium bicarbonate): 182 % of control
- T/C (dose: 1.7 mg/kg/injection, schedule: Q01DX009 (ip), vehicle: sodium bicarbonate): 106 % of control
- T/C (dose: 1.75 mg/kg/injection, schedule: Q01DX005 (ip), vehicle: sodium bicarbonate): 182 % of control
- T/C (dose: 2.0 mg/kg/injection, schedule: Q01DX005 (iv), vehicle: sodium bicarbonate): 161 % of control
- T/C (dose: 2.0 mg/kg/injection, schedule: Q02DX005 (ip), vehicle: saline): 105 % of control
- T/C (dose: 2.0 mg/kg/injection, schedule: Q02DX005 (ip), vehicle: sodium bicarbonate): 163 % of control and 192 % of control
- T/C (dose: 2.3 mg/kg/injection, schedule: Q04DX003 (ip), vehicle: saline): 181 % of control
- T/C (dose: 2.5 mg/kg/injection, schedule: Q01DX005 (ip), vehicle: sodium bicarbonate): 187 % of control
- T/C (dose: 2.5 mg/kg/injection, schedule: Q01DX006 (ip), vehicle: sodium bicarbonate): 179 % of control
- T/C (dose: 2.5 mg/kg/injection, schedule: Q04DX003 (ip), vehicle: sodium bicarbonate): 183 % of control
- T/C (dose: 3.0 mg/kg/injection, schedule: Q01DX006 (ip), vehicle: sodium bicarbonate): 170 % of control
- T/C (dose: 3.0 mg/kg/injection, schedule: Q01DX015 (ip), vehicle: sodium bicarbonate): 110 % of control
- T/C (dose: 3.0 mg/kg/injection, schedule: Q02DX005 (ip), vehicle: saline): 105 % of control
- T/C (dose: 3.0 mg/kg/injection, schedule: Q02DX005 (ip), vehicle: sodium bicarbonate): 182 % of control
- T/C (dose: 3.0 mg/kg/injection, schedule: Q## X009 (ip), vehicle: sodium bicarbonate): 118 % of control
- T/C (dose: 3.13 mg/kg/injection, schedule: Q01DX001 (ip), vehicle: sodium bicarbonate): 122 % of control
